# Experimental data reported in patent US20250049914A1, “STEROID ACID-PEPTIDE BASED INTRACELLULAR CARGO DELIVERY” (DEFENCE THERAPEUTICS INC., priority 2021, published 2025).
# Where no end group is shown, it is not given here.
# Legend:
# cpMSCs = test: OVA-DQ processing in cpMSCs, flow cytometry; assay type: cell-based; details: various molar ratios
# Description: For this experiment, a cross-presenting mesenchymal stromal cell line (cpMSC) was used as the antigen presenting cells, which were pulsed with DQ™ Ovalbumin (i.e., OVADQ). OVADQ fluorescence was measured by flow cytometry. Different ratios of CA (NLS1 RSP17 [FIG. 17A]; NLS3 RPS17 [FIG. 17B]; and PQBP-1 [FIG. 17C] to antigen (CA: OVA=22:1, 12:1, 8:1, 4:1, and 2:1) were tested (hnRNPA1 M9 NLS at 2:1).
# To further dissect the effect of bile acid peptide conjugates on antigen presentation, antigen internalization and processing were evaluated. cpMSCs were pulsed with OVA-labelled with AF647 in the presence of various molar ratios of different bile acid peptide conjugates, NLS1-RPS17 [FIG. 16A]; NLS3 RPS17 [FIG. 16B]; PQBP-1 [FIG. 16C]; and hnRNPA1 M9 NLS [FIG. 6]) and fluorescence was assessed by flow cytometry. […] OVA processing was assessed by pulsing cpMSCs with DQ™-Ovalbumin (OVA-DQ) in the presence of the same bile acid peptide conjugates as in FIGS. 6 and 16.
# human WT MSCs = test: OVA processing by human MSCs, flow cytometry; assay type: cell-based; details: CA-hnRNPA1-treated human MSCs
# MSCs [1] = test: Endosomal escape, apoptosis assay with recombinant cytochrome C; assay type: cell-based, mouse; details: CA-hnRNPA1 50 μM, 6 h
# Description: Endosomal leakage was assessed using an apoptosis assay. Briefly, 10′ MSCs were first supplemented with 10 mg/mL of exogenous rCyt-C for 6 h at 37° C. in the presence or absence of CA-hnRNPA1 (50 μM). Once the incubation period completed, the cells were collected using Accutase®, washed with ice cold PBS, then stained for Annexin-V according to manufacturer's instructions prior to analysis using BD FACS Diva™ on CANTOII™.
# MSCs [2] = test: Cytokine and chemokine analysis (Luminex); assay type: cell-based, mouse; details: 50 μM CA-hnRNPA1, 6 h
# Description: For cytokine and chemokine profiling, 15 cm cell culture dishes containing 80-90% confluent MSCs were grown in serum-free AMEM for 24 h at 37° C. and 5% CO2. MSCs were then treated with 50 μM of CA-hnRNPA1 in serum-free AMEM for 6 h. The supernatant was collected and fresh serum-free AMEM was replenished, without CA-hnRNPA1. After 24 h of the initial CA-hnRNPA1 treatment, the supernatant was collected and gathered with the previous one collected. Collected supernatants were then concentrated using the Amicon Ultra-4™ centrifugal filters (3000 NMWL) for 1 h at 4° C. Collected concentrates (80×) were then frozen at −80° C. until shipped to EveTechnologies™ (Calgary, AB, Canada) for cytokine/chemokine assessment by […].
# [3] = system: mesenchymal stromal cells (MSCs); test: DQ OVA degradation/processing in MSCs, flow cytometry; assay type: cell-based; details: DQ OVA coincubated with conjugate, nine hours
# Description: To evaluate OVA degradation/processing, cells were incubated with 10 µg/mL DQ™ OVA (with or without steroid acid-peptide modification) at 37° C. 30 minutes later, cells were washed, and regular media was added. At the end of the indicated incubation time, cells were collected and washed with cold PBS containing 2% FBS. Fluorescence was monitored by analyzing the cells by flow cytometry.
# Mesenchymal stromal cells (MSCs) were incubated with either unconjugated fluorescently labeled OVA-AF647 alone or mixed with 45 μM of CA-HnRPA1 NLS steroid acid-peptide for nine hours and then intracellular OVA-AF647 delivery was assessed by flow cytometry as described in Example 1. […] The experiment was repeated with DQ™ OVA as cargo to evaluate the intracellular fate of the cargo delivered upon coincubation with CA-HnRPA1 NLS, as described in Example 4.
# MSCs [4] = test: Flow cytometry assessment of ROS production; assay type: cell-based, mouse; details: WT MSCs
# From the text: Dp44mt was used as a positive control. […] For FIGS. 19A-19C, n=6/group with *P<0.05, **P<0.01 and ***P<0.001.
# Next, the mechanism involved in cross presentation enhancement of steroid acid-peptide conjugates was further dissected.
# WT MSCs = test: Flow cytometry of H2-Kb and I-Ab expression; assay type: cell-based, mouse; details: WT MSCs treated with CA-hnRNPA1
# From the text: FIG. 18A and FIG. 18B show the results of antigen cross-presentation assay conducted using CA-hnRNPA1 admixed with OVA compared to controls and CA-SV40. […] For FIGS. 18B, 18E and 18F, n=6/group with *P<0.05, **P<0.01 and ***P<0.001.
# FIG. 18G and FIG. 18H show the increase in H2-Kb and I-Ab expression in WT MSCs treated with CA-hnRNPA1, respectively.
substance,measurement,setting,value
"CA-hnRNPA1: cholic acid conjugated to hnRNPA1 M9 NLS peptide CSNFGPMKGGNFGGRSSGPY (SEQ ID NO: 4) (not fully specified (N-terminus); also: cholic acid conjugate, site not given here)",OVA processing (OVA-DQ fluorescence),cpMSCs,enhance OVA processing
same,OVA processing by human MSCs,human WT MSCs,increase of OVA processing
same,endosomal membrane damage (co-treatment with recombinant cytochrome C),MSCs [1],endosomal membrane damaging properties
same,cytokine levels (Luminex),MSCs [2],increases in various cytokines
same,DQ OVA fluorescence (intracellular degradation/processing),[3]; listed as CA-HnRPA1 NLS,sharp increase
same,DQ OVA fluorescence (intracellular degradation/processing),[3]; listed as CA-hnRPA1 M9 NLS,increased intracellular degradation/processing
same,ROS production by MSCs,MSCs [4],increase in ROS production
same,I-Ab expression,WT MSCs,increase
